Experimental data as given in ChEMBL document CHEMBL1147534, “Examination of the 1,4-disubstituted azetidinone ring system as a template for combretastatin A-4 conformationally restricted analogue design” (Bioorg Med Chem Lett, 2004).

Legend:
IMR-32 = experiment: In vitro cytotoxicity against human cancerous neuroblastoma cells (IMR-32); assay type: functional, cell-based
MCF7 [1] = experiment: In vitro cytotoxicity against human breast carcinoma (MCF-7) tumor cell line; assay type: functional, cell-based
AR-42J cell line = experiment: In vitro cytotoxicity against rat pancreatic (AR-42J) tumor cell line; assay type: functional, cell-based
HCT-116 = experiment: In vitro cytotoxicity against human colon carcinoma (HCT116) tumor cell line; assay type: functional, cell-based
NCI-H460 = experiment: In vitro cytotoxicity against human lung carcinoma (NCI-H460) tumor cell line; assay type: functional, cell-based
DU-145 = experiment: In vitro cytotoxicity against human Prostate carcinoma (DU145) tumor cell line; assay type: functional, cell-based
CHO-K1 = experiment: In vitro cytotoxicity against chinese hamster ovary (CHO-K1) tumor cell line; assay type: functional, cell-based, Cricetulus griseus
CFPAC-1 = experiment: In vitro cytotoxicity against human pancreatic cancer (CFPAC-1) tumor cell line; assay type: functional, cell-based
DLD-1 = experiment: In vitro cytotoxicity against human colon adenocarcinoma (DLD-1) tumor cell line; assay type: functional, cell-based
ACHN = experiment: In vitro cytotoxicity against human renal adenocarcinoma (ACHN) tumor cell line; assay type: functional, cell-based
HeLa = experiment: In vitro cytotoxicity against human cervix adenocarcinoma (HeLa) tumor cell line; assay type: functional, cell-based
T98G = experiment: In vitro cytotoxicity against human glioblastoma (T-98G) tumor cell line; assay type: functional, cell-based
MOLT-4 = experiment: In vitro cytotoxicity against human leukemia (MOLT-4) cell line; assay type: functional, cell-based
MCF7 [2] = experiment: In vitro cytotoxicity against human cancerous cells (MCF-7) was determined; assay type: functional, cell-based
NCI-H69 = experiment: In vitro cytotoxicity against human cancerous cells (NCI-H69) was determined; assay type: functional, cell-based

SMILES | IC50 (IMR-32; Homo sapiens, IMR-32) | IC50 (MCF7 [1]) | IC50 (AR-42J cell line) | IC50 (HCT-116) | IC50 (NCI-H460) | IC50 (DU-145) | IC50 (CHO-K1; Cricetulus griseus, CHO-K1) | IC50 (CFPAC-1) | IC50 (DLD-1) | IC50 (ACHN) | IC50 (HeLa) | IC50 (T98G) | IC50 (MOLT-4) | other results
COc1cc(N2C(=O)C(O)C2c2ccc([N+](=O)[O-])o2)cc(OC)c1OC (configuration not stated) | > 1000 nM |  |  |  |  |  |  |  |  |  |  |  |  | 
COc1cc(N2C(=O)C(OC(C)=O)C2c2ccc([N+](=O)[O-])o2)cc(OC)c1OC (configuration not stated) | 811 nM |  |  |  |  |  |  |  |  |  |  |  |  | 
COc1ccc2cc(C3C(OC(C)=O)C(=O)N3c3cc(OC)c(OC)c(OC)c3)ccc2c1 (configuration not stated) | > 1000 nM |  |  |  |  |  |  |  |  |  |  |  |  | 
COc1ccc(C2C(OC(C)=O)C(=O)N2c2cc(OC)c(OC)c(OC)c2)cc1[N+](=O)[O-] (configuration not stated) | 123 nM | 105 nM | 582 nM | 526 nM | 393 nM | 479 nM | 473 nM | 197 nM | 326 nM | 595 nM | 202 nM | 144 nM | 350 nM | 
COc1ccc2cc(C3C(O)C(=O)N3c3cc(OC)c(OC)c(OC)c3)ccc2c1 (configuration not stated) | 89 nM |  |  |  |  |  |  |  |  |  |  |  |  | 
COc1cc(N2C(=O)C(O)C2c2ccc3c(c2)OCO3)cc(OC)c1OC (configuration not stated) | 473 nM | 544 nM | 1480 nM | 950 nM | 1440 nM | 3160 nM | 891 nM | 885 nM | 905 nM | 2120 nM | 546 nM | 800 nM | 398 nM | IC50 (IMR-32; imr-32): 445 nM
COc1cc(C2C(O)C(=O)N2c2ccc3c(c2)OCO3)cc(OC)c1OC (configuration not stated) | > 1000 nM |  |  |  |  |  |  |  |  |  |  |  |  | 
COc1cc(N2C(=O)C(OC(C)=O)C2c2ccc(N(C)C)cc2)cc(OC)c1OC (configuration not stated) | 520 nM |  |  |  |  |  |  |  |  |  |  |  |  | 
COc1cc(N2C(=O)C(OC)C2c2ccc3c(c2)OCO3)cc(OC)c1OC (configuration not stated) | > 1000 nM |  |  |  |  |  |  |  |  |  |  |  |  | 
COc1cc(N2C(=O)C(OC(C)=O)C2c2ccc(N)o2)cc(OC)c1OC (configuration not stated) | > 1000 nM |  |  |  |  |  |  |  |  |  |  |  |  | 
COc1ccc(C2C(OC)C(=O)N2c2cc(OC)c(OC)c(OC)c2)cc1N (configuration not stated) | > 1000 nM |  |  |  |  |  |  |  |  |  |  |  |  | 
COc1ccc(N2C(=O)C(O)C2c2cc(OC)c(OC)c(OC)c2)cc1 (configuration not stated) | > 1000 nM |  |  |  |  |  |  |  |  |  |  |  |  | 
COc1cc(C2C(OC(C)=O)C(=O)N2c2ccc3c(c2)OCO3)cc(OC)c1OC (configuration not stated) |  | > 10000 nM | > 10000 nM | > 10000 nM | > 10000 nM | > 10000 nM | > 10000 nM | > 10000 nM | > 10000 nM | > 10000 nM | > 10000 nM | > 10000 nM | > 10000 nM | IC50 (IMR-32; imr-32): > 10000 nM
COc1ccc(C2C(O)C(=O)N2c2cc(OC)c(OC)c(OC)c2)cn1 (configuration not stated) | > 1000 nM |  |  |  |  |  |  |  |  |  |  |  |  | 
COc1ccc(N2C(=O)C(OC(C)=O)C2c2cc(OC)c(OC)c(OC)c2)cc1 (configuration not stated) | > 1000 nM |  |  |  |  |  |  |  |  |  |  |  |  | 
COc1ccc(C2C(O)C(=O)N2c2cc(OC)c(OC)c(OC)c2)cc1N (configuration not stated) | 37 nM | 55 nM | 62.1 nM | 140 nM | 184 nM | 380 nM | 544 nM | 50.2 nM | 130 nM | 91.2 nM | 63.9 nM | 109 nM | 71.7 nM | IC50 (MCF7 [2]): 81 nM; IC50 (CHO-K1; cho-k1): 411 nM; IC50 (NCI-H69): 25 nM; IC50 (IMR-32; imr-32): 38.3 nM
COc1ccc(C2C(OC)C(=O)N2c2cc(OC)c(OC)c(OC)c2)cc1[N+](=O)[O-] (configuration not stated) |  | > 10000 nM | > 10000 nM | > 10000 nM | > 10000 nM | > 10000 nM | > 10000 nM | > 10000 nM | > 10000 nM | > 10000 nM | > 10000 nM | > 5000 nM | > 10000 nM | IC50 (IMR-32; imr-32): > 10000 nM
COc1ccc(C2C(OC(C)=O)C(=O)N2c2cc(OC)c(OC)c(OC)c2)cc1 (configuration not stated) | 251 nM |  |  |  |  |  |  |  |  |  |  |  |  | 
COc1cc(N2C(=O)C(OC(C)=O)C2c2ccc3c(c2)OCO3)cc(OC)c1OC (configuration not stated) | 910 nM |  |  |  |  |  |  |  |  |  |  |  |  | 
COc1ccc(C2C(OC(C)=O)C(=O)N2c2cc(OC)c(OC)c(OC)c2)cn1 (configuration not stated) | > 1000 nM |  |  |  |  |  |  |  |  |  |  |  |  | 
COc1ccc(C2C(O)C(=O)N2c2cc(OC)c(OC)c(OC)c2)cc1 (configuration not stated) | 33 nM |  |  |  |  |  | 509 nM |  |  |  |  |  |  | IC50 (MCF7 [2]): 62 nM; IC50 (NCI-H69): 47 nM
COc1ccc(C2C(O)C(=O)N2c2cc(OC)c(OC)c(OC)c2)cc1[N+](=O)[O-] (configuration not stated) | 38 nM | 37.1 nM | 212 nM | 68.8 nM | 425 nM | 91.9 nM | 236 nM | 42.1 nM | 59.1 nM | 29.2 nM | 40 nM | 49.8 nM | 74 nM | IC50 (MCF7 [2]): 97 nM; IC50 (CHO-K1; cho-k1): 416 nM; IC50 (NCI-H69): 74 nM; IC50 (IMR-32; imr-32): 41.4 nM
COc1ccc(C2C(OC(C)=O)C(=O)N2c2cc(OC)c(OC)c(OC)c2)cc1N (configuration not stated) | 73.1 nM | 70.5 nM | 219 nM | 368 nM | 449 nM | 430 nM | 462 nM | 204 nM | 394 nM | 150 nM | 262 nM | 145 nM | 372 nM | IC50 (MCF7 [2]): 200 nM; IC50 (CHO-K1; cho-k1): 509 nM; IC50 (NCI-H69): 41 nM
